Data: patent publication US20210100872A1, “Pharmacological Formulation Comprising Cyclo (HIS-PRO) As Effective Ingredient For Preventing Or Treating Diabetes Mellitus” (Novmetapharma Co., Ltd., priority 2017, published 2021)

Assays:
Format in all cases: in vivo, human
[1] = test system: patients with type 2 diabetes mellitus; test: Change in concentration of HbA1c, 12-week clinical trial; settings: for concentration of HbA1c, Average / concentration of HbA1c, Change Value, Average: capsule once a day; for concentration of HbA1c, Change Value, Average: From Week 0 to Week 12
Method: (§1) We conducted a clinical trial designed as randomized, placebo-controlled, double-blind, and two-way crossover on drug interaction in patients with type 2 diabetes mellitus. The clinical trial was conducted for 149 patients over a total of 16 weeks, in which the screening period was 2 weeks, the treatment period was 12 weeks, and the period of the evaluation of safety and follow-up was 2 weeks.
(§2) In the screening stage, 64 subjects were selected from 149 participants, and the subjects who met the selection criteria were fasted for 2 hours before and after breakfast each day and subjected to a 2-week evaluation process of measuring and recording blood glucose levels. In the treatment stage, capsules containing placebo or CHP with different doses were randomly administered to 64 selected subjects once a day for 12 consecutive weeks.
(§3) In the above experiment, a capsule containing CHP (cyclo-hispro) with a different dose or a placebo corresponding thereto was used, and each subject received a two-week dose (18 capsules =14 +4) at one visit and was instructed to take 1 capsule before bedtime every day. In this case, the anti-diabetic drugs and other prescribed drugs currently being used were continuously taken. Each subject was assigned at the same rate as follows and administered with a placebo or a compound with a different dose, respectively. • Administration Group A: 3 mg of CHP+23 mg of zinc—16 subjects • Administration Group B: 9 mg of CHP+23 mg of zinc—16 subjects • Administration Group C: 15 mg of CHP+23 mg of zinc—16 subjects • Administration Group D: placebo (control)—16 subjects
The present inventors observed the change in concentration of HbA1c during the 12-week dosing period. Since the blood glucose level measured at one time point can change due to various factors, the change in glycated hemoglobin (HbA1c) was checked for the purpose of determining the pattern of long-term glycemic control, and the results are shown in Table 1 and FIG. 1.

[2] = Change in body weight, 12-week clinical trial
Method: as §1, §2
(§4) In the above experiment, a capsule containing CHP (cyclo-hispro) with a different dose or a placebo corresponding thereto was used, and each subject received a two-week dose (18 capsules =14 +4) at one visit and was instructed to take 1 capsule before bedtime every day. In this case, the anti-diabetic drugs and other prescribed drugs currently being used were continuously taken. […]

[3] = Body mass index (BMI), 12-week clinical trial; settings: capsule once a day, From Week 0 to Week 12
Method: as §1, §2, §3
The present inventors confirmed the improvement of body mass index (BMI) and the improvement of leptin resistance, and the results are shown in Tables 3 and 4.

[4] = test system: patients with type 2 diabetes mellitus; test: Plasma leptin level (leptin resistance), 12-week clinical trial; settings: Administration Group A: 3 mg of CHP+23 mg of zinc, capsule once a day; From Week 0 to Week 12
Method: as §1, §2, §4

[5] = Administration Group A: 3 mg of CHP+23 mg of zinc
[6] = Administration Group B: 9 mg of CHP+23 mg of zinc
[7] = Administration Group C: 15 mg of CHP+23 mg of zinc

O=C1NC(Cc2c[nH]cn2)C(=O)N2CCCC12 (centres unmarked) [CHP, cyclo(his-pro)]
concentration of HbA1c, Average ([1]; Administration Group A: 3 mg of CHP+23 mg of zinc, Baseline (Week 0)): 8.25%
concentration of HbA1c, Change Value, Average [1, 5]: −0.21%
concentration of HbA1c, Average ([1]; Administration Group B: 9 mg of CHP+23 mg of zinc, Baseline (Week 0)): 8.06%
concentration of HbA1c, Change Value, Average [1, 6]: −0.17%
concentration of HbA1c, Average ([1]; Administration Group C: 15 mg of CHP+23 mg of zinc, Baseline (Week 0)): 8.49%
concentration of HbA1c, Change Value, Average [1, 7]: −0.43%
concentration of HbA1c, Average ([1]; Administration Group C: 15 mg of CHP+23 mg of zinc, Week 12): 8.08%
level of HbA1c over time (FIG. 1) ([1]; Administration Group C: 15 mg of CHP+23 mg of zinc, week 0 to week 12): reduced consistently until week 8, and then there was little change in the level of HbA1c between week 8 and week 12
body weight, Change Value, Average ([2]; Administration Group A: 3 mg of CHP+23 mg of zinc, capsule once a day, From Week 0 to Week 12): -0.73 kg
weight gain compared to the control ([2]; all patient groups receiving CHP (3, 9, 15 mg+23 mg of zinc), 12 weeks): less than the control, or the body weight was reduced
body mass index (BMI), Change Value, Average [3, 5]: −0.27 kg/m^2
body mass index (BMI), Change Value, Average [3, 6]: 0.16 kg/m^2
body mass index (BMI), Change Value, Average [3, 7]: −0.28 kg/m^2
plasma leptin level, Change Value, Average [4]: 0.59
